Measured values from the OligoGym collection.
These antisense oligonucleotides have a phosphorothioate backbone; sugars and methylation of C are not fully specified.

Target: TFRC
Details: ASO
Also: test concentration or dose not given here.

Work on CTGAAGAGACCCTATGAA yielded a remaining target (mRNA or protein) (fraction of control) of 0.97.

Target: CD44
Details: ASO

First: CGATCTGCGCCAGGCTCA
Second: GTGGAGCTGAAGCATTGA
The remaining target (mRNA or protein) (fraction of control) of the first is lower: 0.72 for the first, no less than 1 for the second.

Going from TGAGACTTGCTGGCCTCT to GTTGTGTTTGCTCCACCT, the remaining target (mRNA or protein) (fraction of control) falls from 0.93 to 0.92.

TCTTGGTCTCTGGTAGCA and TTGCTCCACCTTCTTGAC cannot be ordered by remaining target (mRNA or protein) (fraction of control): no less than 1 for the first, no less than 1 for the second.

GCCATTCTGGAATTTGGG and TTGACTCCCATGTGAGTG cannot be ordered by remaining target (mRNA or protein) (fraction of control): no less than 1 for the first, no less than 1 for the second.

CCAACCTCAGTGGAAAGC and GTCTCCCAGAAGCATCTG cannot be ordered by remaining target (mRNA or protein) (fraction of control): no less than 1 for the first, no less than 1 for the second.

TCCACTTGGCTTTCTGTC and TGCAGAGGTCAGCGGCCT cannot be ordered by remaining target (mRNA or protein) (fraction of control): no less than 1 for the first, no less than 1 for the second.

ACCAGGCCCTATTAACCC and CTGGACATAGCGGGTGCC cannot be ordered by remaining target (mRNA or protein) (fraction of control): no less than 1 for the first, no less than 1 for the second.

TCCCAGCTCCCTGTAATG and CAGGGATTAGGCTATGGA cannot be ordered by remaining target (mRNA or protein) (fraction of control): no less than 1 for the first, no less than 1 for the second.

CTGTCTTCGTCTGGGATG and TACACCTGCAAAGCGGCA cannot be ordered by remaining target (mRNA or protein) (fraction of control): no less than 1 for the first, no less than 1 for the second.

CCATTTCCTGAGACTTGC and TGGTAGCAGGGATTCTGT cannot be ordered by remaining target (mRNA or protein) (fraction of control): no less than 1 for the first, no less than 1 for the second.

Compared with CTTGTTCACCAAATGCAC, CCCACACCTTCTTCGACT is lower in remaining target (mRNA or protein) (fraction of control): no less than 1 for the first, 0.94 for the second.

TTTGCTGCACAGATGGAG and AGAGGGATGCCAAGATGA cannot be ordered by remaining target (mRNA or protein) (fraction of control): no less than 1 for the first, no less than 1 for the second.

CCTTTGGTGTCTCCCAGA and AGGTCTCAAATCCGATGC cannot be ordered by remaining target (mRNA or protein) (fraction of control): no less than 1 for the first, no less than 1 for the second.

AATGTCCTTAGCTGGTGG and CAACGGTTGTTTCTTTCC cannot be ordered by remaining target (mRNA or protein) (fraction of control): no less than 1 for the first, no less than 1 for the second.

AGAGCTTTCTCCATCTGG and CGGAGCGAACGGAGGGCG cannot be ordered by remaining target (mRNA or protein) (fraction of control): no less than 1 for the first, no less than 1 for the second.

ATCAGTAGGGTTGCTGGG and GACGACTCCTTGTTCACC cannot be ordered by remaining target (mRNA or protein) (fraction of control): no less than 1 for the first, no less than 1 for the second.

GACTGTTGACTGCAATGC and GTGGGCAAGGTGCTATTG cannot be ordered by remaining target (mRNA or protein) (fraction of control): no less than 1 for the first, no less than 1 for the second.

TCCATCAAAGGCATTGGG and TCTCCATCTGGGCCATTG cannot be ordered by remaining target (mRNA or protein) (fraction of control): no less than 1 for the first, no less than 1 for the second.

GCGGCAGGTTATATTCAA and AAAGGTTGGCGATCAGGA cannot be ordered by remaining target (mRNA or protein) (fraction of control): no less than 1 for the first, no less than 1 for the second.

Going from TAAGTGTCCCAGCTCCCT to GGCCTCTCCGTTGAGTCC, the remaining target (mRNA or protein) (fraction of control) rises from 0.98 to no less than 1.

TGGGAGGTGTTGTATGTG and GTGTTGTTTGCTGCACAG cannot be ordered by remaining target (mRNA or protein) (fraction of control): no less than 1 for the first, no less than 1 for the second.

GGTTATGTTTCCAACGGT and ACGTGGAATACACCTGCA cannot be ordered by remaining target (mRNA or protein) (fraction of control): no less than 1 for the first, no less than 1 for the second.

AAGCCAAGGCCAAGAGGG and TCAAAGGACTGATCCAGG cannot be ordered by remaining target (mRNA or protein) (fraction of control): no less than 1 for the first, no less than 1 for the second.

GTTTCCAACGGTTGTTTC and ATCCAGGGACTGTCTTCG cannot be ordered by remaining target (mRNA or protein) (fraction of control): no less than 1 for the first, no less than 1 for the second.

AACCCTGGGAAATGTCCT and GATTAGGCTATGGAAGGG cannot be ordered by remaining target (mRNA or protein) (fraction of control): no less than 1 for the first, no less than 1 for the second.

First: AGCCGCTGCTCACGTCAT
Second: CAAGGTGCTATTGAAAGC
The remaining target (mRNA or protein) (fraction of control) of the first is higher: no less than 1 for the first, 0.92 for the second.

ACAGCTCCATTGCCACTG and GGCTTTCTGTCCTCCACA cannot be ordered by remaining target (mRNA or protein) (fraction of control): no less than 1 for the first, no less than 1 for the second.

Going from CGTTGAGTCCACTTGGCT to GCCTCCAAGTGGAACTGA, the remaining target (mRNA or protein) (fraction of control) falls from no less than 1 to 0.99.

First: CCACATGCCCTTCTATGA
Second: GCAAGAATCAAAGCCAAG
The remaining target (mRNA or protein) (fraction of control) of the first is lower: 0.9 for the first, no less than 1 for the second.

ATCCATAGCACACCCGAG and GGTTGGCGATCAGGAATA cannot be ordered by remaining target (mRNA or protein) (fraction of control): no less than 1 for the first, no less than 1 for the second.

Compared with AGGACTGATCCAGGGTTT, TAGCGGGTGCCATCACGG is higher in remaining target (mRNA or protein) (fraction of control): 0.83 for the first, no less than 1 for the second.

Going from GACTTGCTGGCCTCTCCG to CTCAGCGGCACGAGGCAG, the remaining target (mRNA or protein) (fraction of control) falls from no less than 1 to 0.91.

Going from TGCTATTGAAAGCCTTGC to AGCCATCCATAGCACACC, the remaining target (mRNA or protein) (fraction of control) falls from no less than 1 to 0.97.

Going from GAAAGCCTTGCAGAGGTC to TCATGTCCACATTCTGCA, the remaining target (mRNA or protein) (fraction of control) falls from 0.9 to 0.81.

First: GGGCCCTAATTTACAAAG
Second: AGCAATGCCCAGGGATTA
The remaining target (mRNA or protein) (fraction of control) of the first is lower: 0.88 for the first, no less than 1 for the second.

TTTCCTCCCAGGGACCAG and GGCACGAGGCAGAGTCCC cannot be ordered by remaining target (mRNA or protein) (fraction of control): no less than 1 for the first, no less than 1 for the second.

GGCAGGTCTGTGACTGAT and AGTGGAAAGCAATGCCCA cannot be ordered by remaining target (mRNA or protein) (fraction of control): no less than 1 for the first, no less than 1 for the second.

Going from AAGGCATTGGGCAGGTCT to CTGTGCTGTCGGTGATCC, the remaining target (mRNA or protein) (fraction of control) rises from 0.99 to no less than 1.

GTCCTCCACAGCTCCATT and TCTTCTGCCCACACCTTC cannot be ordered by remaining target (mRNA or protein) (fraction of control): no less than 1 for the first, no less than 1 for the second.

TGACTGCAATGCAAACTG and ATAGCACACCCGAGGATG cannot be ordered by remaining target (mRNA or protein) (fraction of control): no less than 1 for the first, no less than 1 for the second.

First: GCTGCTCCTTTCACTGGA
Second: AGATTCGCAATGAAACAA
The remaining target (mRNA or protein) (fraction of control) of the first is lower: 0.9 for the first, no less than 1 for the second.

Going from CGTCCGAGAGATGCTGTA to AAATCCGATGCTCAGAGC, the remaining target (mRNA or protein) (fraction of control) rises from 0.52 to no less than 1.

Target: SRA1
Details: ASO

Compared with AGAGGCAGGACCACTCCC, ATGAGGGAGCGGTGGATG is higher in remaining target (mRNA or protein) (fraction of control): 0.92 for the first, no less than 1 for the second.

ATCCTCCATCAGTCGAGC and ACCACTCCCCACAGGTGG cannot be ordered by remaining target (mRNA or protein) (fraction of control): no less than 1 for the first, no less than 1 for the second.

Going from CGAGCGCCTGGGTCCGCC to TTTCACCGCAGAGATGTT, the remaining target (mRNA or protein) (fraction of control) rises from 0.48 to no less than 1.

First: AAGGAGGTGGAGGCCCCA
Second: CAATGCCTGTTCCAAAGG
The remaining target (mRNA or protein) (fraction of control) of the first is lower: 0.72 for the first, 0.91 for the second.

Going from TGTCATCACATACCTGCT to CTGACCTCAGTCACATGG, the remaining target (mRNA or protein) (fraction of control) rises from 0.76 to no less than 1.

Going from ACCTGCTTCCTTGTGTGG to AGCGGTGGATGTCATCTG, the remaining target (mRNA or protein) (fraction of control) rises from 0.32 to 0.65.

TCAGTCACATGGTCAACC and GGTGTCCGGTGAGTCTGG are the same in remaining target (mRNA or protein) (fraction of control): 0.5 for the first, 0.5 for the second.

Compared with GCCAGGCGTCGGCTGATG, GAGGCCCAGGAGAAGTCT is higher in remaining target (mRNA or protein) (fraction of control): 0.38 for the first, 0.62 for the second.

Compared with TTTAACTCCTACCATCCA, CCTCTGAAAACAGACTCC is lower in remaining target (mRNA or protein) (fraction of control): 0.89 for the first, 0.71 for the second.

Compared with CTTTCCTTTTGTTGAGGG, TGCTGCGTCCCACCGGTG is lower in remaining target (mRNA or protein) (fraction of control): no less than 1 for the first, 0.27 for the second.

First: GGAACCGAGGATTATGAA
Second: GTATCTCAAGGGTGATAC
The remaining target (mRNA or protein) (fraction of control) of the first is higher: 0.68 for the first, 0.6 for the second.

Going from GTCTGCAGCCCGTATGAG to CATCCAAACACAGCTGCT, the remaining target (mRNA or protein) (fraction of control) falls from no less than 1 to 0.39.

First: ACCATCCACTGACTGACC
Second: CTCTGGCCCAGGTGGGAC
The remaining target (mRNA or protein) (fraction of control) of the first is higher: no less than 1 for the first, 0.55 for the second.

Going from AAACTTGTGGGCTCCACG to TGGTAAGCAGCGAGCGCC, the remaining target (mRNA or protein) (fraction of control) rises from 0.18 to 0.74.

Compared with GCTGTGGCTGCAGATTTC, CTCGACTGGGAAACTTGT is higher in remaining target (mRNA or protein) (fraction of control): 0.48 for the first, 0.63 for the second.

Compared with TTCTCATGCTGAAATGAA, TGGTATGGTTCTTCTCAG is lower in remaining target (mRNA or protein) (fraction of control): 0.74 for the first, 0.58 for the second.

Going from GTATGGTATGGTTCTTCT to ATCTGCTGCGTCCCACCG, the remaining target (mRNA or protein) (fraction of control) falls from 0.94 to 0.9.

Compared with CATCACATACCTGCTTCC, CCTGGGTCCGCCGGCCTG is higher in remaining target (mRNA or protein) (fraction of control): 0.68 for the first, 0.86 for the second.

First: TTCCTGCAGCAGTGCCAG
Second: GGGAGCCTTACTTGAAGG
The remaining target (mRNA or protein) (fraction of control) of the first is lower: 0.45 for the first, 0.88 for the second.

First: TTTCTGCAATTAATCTTT
Second: TCAGCACATCCTCCATCA
The remaining target (mRNA or protein) (fraction of control) of the first is higher: no less than 1 for the first, 0.97 for the second.

First: CTGCTGGAAGCCTGGTAT
Second: TGTTCCTGCAGCAGTGCC
The remaining target (mRNA or protein) (fraction of control) of the first is higher: 0.77 for the first, 0.39 for the second.

Compared with GGCGTCGGCTGATGTCAT, GGAGCCTTACTTGAAGGA is higher in remaining target (mRNA or protein) (fraction of control): 0.42 for the first, 0.54 for the second.

Compared with TGCTGGAAGCCTGGTATG, GGTGGTGGTAAGAAGGGA is higher in remaining target (mRNA or protein) (fraction of control): 0.28 for the first, no less than 1 for the second.

Compared with TATGAAGCCTGCTGGAAG, CCACCGGTGGCTTGAAAG is higher in remaining target (mRNA or protein) (fraction of control): 0.64 for the first, 0.85 for the second.

Going from ACTGGGAAACTTGTGGGC to ACACATGAACTCCCTCTG, the remaining target (mRNA or protein) (fraction of control) falls from no less than 1 to 0.77.

First: CAGCACATCCTCCATCAG
Second: CTGAAAACAGACTCCTCT
The remaining target (mRNA or protein) (fraction of control) of the first is higher: 0.61 for the first, 0.56 for the second.

Going from CCATTCTCTTCTTTACAG to TTCTGCAATTAATCTTTT, the remaining target (mRNA or protein) (fraction of control) falls from 0.6 to 0.59.

Going from GCTCCGCCCAGCACAGGA to TTCCTTGTTGCCTGCGGA, the remaining target (mRNA or protein) (fraction of control) rises from 0.37 to 0.72.
